What was measured:
[1] = target: cAMP-dependent protein kinase (PKA) (Homo sapiens) (UniProt P22694+P17612+P22612); assay: Inhibition of Protein kinase A at 5 uM; format: protein assay
[2] = target: Proto-oncogene tyrosine-protein kinase Src (Homo sapiens) (UniProt P12931); assay: Inhibition of c-Src tyrosine kinase at 5 uM
PBMC [3] = assay: cells; details: Homo sapiens
Description: Inhibition of LPS-stimulated TH+NF-alphs production by human peripheral blood mononuclear cells (PBMCs)

[4] = target: T1, Prostaglandin G/H synthase 1 (Homo sapiens, UniProt P23219); assay: Inhibition of Prostaglandin G/H synthase 1 at 5 uM (Inactive)
T1 sequence (P23219 whole entry): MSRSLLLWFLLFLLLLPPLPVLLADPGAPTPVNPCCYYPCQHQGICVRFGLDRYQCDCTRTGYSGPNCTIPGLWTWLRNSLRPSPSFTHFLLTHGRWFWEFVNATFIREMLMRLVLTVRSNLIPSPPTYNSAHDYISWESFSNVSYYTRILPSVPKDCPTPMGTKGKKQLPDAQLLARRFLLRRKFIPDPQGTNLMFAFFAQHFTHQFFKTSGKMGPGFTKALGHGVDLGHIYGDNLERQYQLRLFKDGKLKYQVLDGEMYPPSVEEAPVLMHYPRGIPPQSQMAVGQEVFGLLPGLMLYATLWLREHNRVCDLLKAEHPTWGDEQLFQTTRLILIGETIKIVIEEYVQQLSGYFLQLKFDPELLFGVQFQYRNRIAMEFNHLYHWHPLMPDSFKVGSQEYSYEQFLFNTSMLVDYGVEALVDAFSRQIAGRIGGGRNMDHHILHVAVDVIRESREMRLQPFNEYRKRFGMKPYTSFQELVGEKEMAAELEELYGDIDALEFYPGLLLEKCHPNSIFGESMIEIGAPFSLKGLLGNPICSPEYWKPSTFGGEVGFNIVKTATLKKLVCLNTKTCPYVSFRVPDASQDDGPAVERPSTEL

[5] = Percent inhibition of LPS-stimulated TNF-alpha release in fasted BALB/cJ mice at 10 mg/kg; format: functional; details: Mus musculus
[6] = Percent inhibition of LPS-stimulated TNF-alpha release in fasted BALB/cJ mice at 25 mg/kg; format: functional; details: Mus musculus
[7] = target: Mitogen-activated protein kinase 1 (Homo sapiens) (UniProt P28482); assay: Inhibition of Mitogen-activated protein kinase 1 (ERK-2 enzyme) at 10 uM
Sequence of Mitogen-activated protein kinase 1 (Homo sapiens) (P28482 whole entry): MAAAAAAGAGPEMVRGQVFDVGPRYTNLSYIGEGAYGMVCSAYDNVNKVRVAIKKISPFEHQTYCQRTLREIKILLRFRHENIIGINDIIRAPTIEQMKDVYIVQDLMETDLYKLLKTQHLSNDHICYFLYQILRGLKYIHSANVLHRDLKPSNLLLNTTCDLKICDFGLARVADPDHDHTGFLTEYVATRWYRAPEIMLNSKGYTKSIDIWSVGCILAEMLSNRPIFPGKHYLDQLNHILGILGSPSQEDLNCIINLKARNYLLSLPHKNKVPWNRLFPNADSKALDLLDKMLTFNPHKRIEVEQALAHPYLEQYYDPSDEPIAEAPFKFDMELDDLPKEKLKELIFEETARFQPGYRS

PBMC [8] = assay: cells; format: functional, cell-based; details: Homo sapiens
[9] = target: T1, Prostaglandin G/H synthase 1; assay: Inhibition of Prostaglandin G/H synthase 1 at 5 uM
animal or person [10] = details: Mus musculus, read-out: Inhibition
animal or person [11] = details: Mus musculus, read-out: Inhibition; remark: listed apart in the source

Sequence of Proto-oncogene tyrosine-protein kinase Src (Homo sapiens) (P12931 2-536 limits assumed): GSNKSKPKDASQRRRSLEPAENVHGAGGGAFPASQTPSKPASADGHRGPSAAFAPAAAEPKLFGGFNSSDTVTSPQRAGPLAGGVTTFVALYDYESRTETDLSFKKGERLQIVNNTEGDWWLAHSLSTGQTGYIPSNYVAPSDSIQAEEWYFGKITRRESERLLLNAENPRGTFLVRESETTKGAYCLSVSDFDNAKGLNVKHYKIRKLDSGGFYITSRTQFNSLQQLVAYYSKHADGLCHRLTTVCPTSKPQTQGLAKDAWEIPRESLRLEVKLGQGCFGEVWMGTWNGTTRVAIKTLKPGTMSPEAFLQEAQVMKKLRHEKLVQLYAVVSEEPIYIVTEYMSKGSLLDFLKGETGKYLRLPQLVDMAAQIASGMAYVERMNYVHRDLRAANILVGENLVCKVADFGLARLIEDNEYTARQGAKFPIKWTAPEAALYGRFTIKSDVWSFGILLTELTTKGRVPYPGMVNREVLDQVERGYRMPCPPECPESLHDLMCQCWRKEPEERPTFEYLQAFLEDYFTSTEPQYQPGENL

Row | SMILES | inhibition [1] | inhibition [2] | IC50 (PBMC [3]) | IC50 [4] | inhibition in vivo at 10 mg/kg [5] | inhibition in vivo at 25 mg/kg [6] | inhibition [7] | IC50 (PBMC [8]) | IC50 [9] | inhibition in vivo at 10 mg/kg (animal or person [10]) | inhibition in vivo at 25 mg/kg (animal or person [11])
1 | Nc1cc(OCCCc2ccccc2)c2c(-c3ccncc3)c(-c3ccc(F)cc3)[nH]c2n1 | 0% | 3% | 9 nM | – | – | – | – | – | – | – | –
2 | COc1cccc(COc2cc(N)[nH]c3nc(-c4ccc(F)cc4)c(-c4ccncc4)c2-3)c1 | 0% | 58% | 1.5 nM | – | – | – | – | – | – | – | –
3 | CCCCOc1cc(N)[nH]c2nc(-c3ccc(F)cc3)c(-c3ccncc3)c1-2 | 0% | 18% | 4 nM | Not Active | 27% | 71% | – | – | – | – | –
4 | Nc1ccc2c(-c3ccncc3)c(-c3ccc(F)cc3)[nH]c2n1 | 16% | 63% | 37 nM | Not Active | 73% | 98% | 0% | 450 nM | – | – | –
5 | C[S+]([O-])c1ccc(-c2nc(-c3ccncc3)c(-c3ccc(F)cc3)[nH]2)cc1 (stereo not drawn) [SB-203580] | – | – | – | – | – | – | – | – | > 5000 nM | – | –
6 | COc1cc(N)[nH]c2nc(-c3ccc(F)cc3)c(-c3ccncc3)c1-2 | 0% | 43% | – | Not Active | – | – | 23% | – | – | 85% | 99%
7 | Nc1cc(OCc2ccccc2)c2c(-c3ccncc3)c(-c3ccc(F)cc3)[nH]c2n1 | 0% | 19% | 0.91 nM | Not Active | 11% | 86% | – | – | – | – | –
8 | C[S+]([O-])c1ccc(-c2nc(-c3ccc(F)cc3)c(-c3ccncc3)[nH]2)cc1 (stereo not drawn) [SB-203580] | 0% | 54% | – | – | 33% | 83% | 22% | – | – | – | –

Source: ChEMBL document CHEMBL1131612, “6-Amino-2-(4-fluorophenyl)-4-methoxy-3- (4-pyridyl)-1H-pyrrolo[2, 3-b]pyridine (RWJ 68354): a potent and selective p38 kinase inhibitor” (J Med Chem, 1998)
